The target of assay [1] is T1, 5-hydroxytryptamine receptor 2A (Homo sapiens, UniProt P28223). In words: Inverse agonist activity at human prefrontal cortex 5-HT2A receptor assessed as […] in [35S]GTPgammaS binding by liquid scintillation spectrometry analysis. In kind it is functional, tissue-based.
In assay [2] the target is T1, 5-hydroxytryptamine receptor 2A. Nature of the assay: Inverse agonist activity at human 5-HT2A receptor assessed as […] in [35S]GTPgammaS binding by liquid scintillation spectrometry analysis. Format: functional.
The target is the same in assay [3]. Nature of the assay: Displacement of [3H]ketanserin from postmortem human brain membrane homogenate 5-HT2A receptor incubated for 120 mins by microbeta liquid scintillation counter analysis. In kind it is cell membranes.
For assay [4] the target is unchanged. In words: Inverse agonist activity at human postmortem human brain membrane 5-HT2A receptor assessed as […] in [35S]GTPgammaS binding by liquid scintillation spectrometry analysis. Format: functional, cell membranes.
For assay [5] the target is unchanged. In words: Displacement of [3H]ketanserin from human 5-HT2A receptor incubated for 120 mins by microbeta liquid scintillation counter analysis.
Assay [6] has the same target. In words: Inverse agonist activity at human 5-HT2A receptor expressed in cell membrane assessed as […] in [35S]GTPgammaS binding by liquid scintillation spectrometry analysis. Format: functional, cell membranes.
Assay [7] has the same target. In words: Displacement of [3H]ketanserin human recombinant 5-HT2A receptor by Cheng-Prusoff equation analysis.
Assay [8] has the same target. Nature of the assay: Displacement of [3H]ketanserin from human brain cortex 5-HT2A receptor by Cheng-Prusoff equation analysis. Format: tissue-based.

T1 sequence (P28223 whole entry): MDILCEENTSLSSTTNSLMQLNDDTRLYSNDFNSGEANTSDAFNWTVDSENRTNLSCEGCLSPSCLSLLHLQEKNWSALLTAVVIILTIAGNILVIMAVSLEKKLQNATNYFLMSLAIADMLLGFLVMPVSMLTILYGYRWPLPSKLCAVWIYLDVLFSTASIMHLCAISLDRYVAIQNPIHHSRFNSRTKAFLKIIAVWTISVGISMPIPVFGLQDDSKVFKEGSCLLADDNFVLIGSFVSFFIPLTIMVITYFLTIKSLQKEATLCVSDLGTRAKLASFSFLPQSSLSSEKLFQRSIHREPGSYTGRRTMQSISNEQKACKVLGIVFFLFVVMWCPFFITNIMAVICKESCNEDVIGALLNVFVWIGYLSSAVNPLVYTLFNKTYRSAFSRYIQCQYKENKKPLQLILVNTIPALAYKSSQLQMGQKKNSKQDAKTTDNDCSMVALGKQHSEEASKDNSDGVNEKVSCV

With `CC1COc2ccc(CNC(=O)N(Cc3ccc(F)cc3)C3CCN(C)CC3)cc21` (stereo not given), the IC50 in assay [1] was 12.6 nM; in assay [2] it was 0.158 nM; in assay [4] it was 0.316 nM; in assay [6], 79.4 nM. Moreover, the Ki in assay [3] is 5.01 nM; in assay [5], 0.158 nM.

`CC1Cc2cc(CNC(=O)N(Cc3ccc(F)cc3)C3CCN(C)CC3)ccc2O1` (stereo not given): the IC50 is 12.6 nM in assay [1], 0.251 nM in assay [2], 0.251 nM in assay [4] and 79.4 nM in assay [6]. In addition, the inhibition constant (Ki) is 0.501 nM in assay [3] and 0.0316 nM in assay [5].

For the molecule `CN1CCC(N(Cc2ccc(F)cc2)C(=O)NCc2ccc3c(c2)CC(C)(C)O3)CC1`, the Ki in assay [7] is 0.003 nM; in assay [8], 0.06 nM; in assay [3], 0.0501 nM; in assay [5], 0.00251 nM. In addition, the IC50 in assay [1] was 12.6 nM; in assay [2], 0.0631 nM; in assay [4], 0.0501 nM; in assay [6] it was 79.4 nM.
